Test results from ChEMBL document CHEMBL1821593, “Synthesis and α-Glucosidase II inhibitory activity of valienamine pseudodisaccharides relevant to N-glycan biosynthesis” (Bioorg Med Chem Lett, 2011).
One block for each compound: values may come before it. Active and inactive are the calls of the source. The calls are words filed in the database; no cut-off is given here.

How the values were obtained:
Rattus norvegicus [1] = species on record: Rattus norvegicus; test: (§1) Inhibition of rat liver Alpha-glucosidase I using Glc3Man9GlcNAc2 substrate
Rattus norvegicus [2] = species on record: Rattus norvegicus; test: (§2) Inhibition of rat liver Alpha-glucosidase II using p-nitrophenyl alpha D-glucopyranoside substrate
Rattus norvegicus [3] = species on record: Rattus norvegicus; test: Inhibition of rat liver Alpha-glucosidase II upto 500 uM using Glc2Man7GlcNAc2 substrate after 2 hrs by NP-HPLC analysis
HL-60 [4] = test: Inhibition of Alpha-glucosidase II in human HL60 cells using 2-Anthranilic acid labelled NB-DNJ substrate after 24 hrs by HPLC analysis relative to control; type: cell-based
Rattus norvegicus [5] = species on record: Rattus norvegicus; test: Inhibition of rat liver Alpha-glucosidase II upto 500 uM using Glc1Man5GlcNAc1 substrate after 90 mins by NP-HPLC analysis
HL-60 [6] = test: Inhibition of Alpha-glucosidase I in human HL60 cells using Glc3Man9GlcNAc2 substrate after 24 hrs by HPLC analysis; type: cell-based
[7] = as §1
[8] = as §2
HL-60 [9] = test: Inhibition of Alpha-glucosidase II in human HL60 cells assessed as Glc1Man4GlcNAc1 formation using 2-Anthranilic acid labelled NB-DNJ substrate by HPLC analysis; type: cell-based
[10] = Inhibition of rat liver Alpha-glucosidase II using Glc1Man5GlcNAc1 substrate after 90 mins by NP-HPLC analysis
[11] = Inhibition of rat liver Alpha-glucosidase II using Glc2Man7GlcNAc2 substrate after 2 hrs by NP-HPLC analysis
[12] = Inhibition of rat liver Alpha-glucosidase II

SMILES: CO[C@H]1O[C@H](CO)[C@@H](O)[C@H](N[C@H]2[C@H](O)[C@H](O)[C@@H](O)[C@H](O)[C@H]2O)[C@H]1O
inhibition (Rattus norvegicus [1]): inactive | inhibition (Rattus norvegicus [2]): inactive

SMILES: N[C@H]1C=C(CO)[C@@H](O)[C@H](O)[C@H]1O [VALIENAMINE]
inhibition (HL-60 [6]): inactive | IC50 [7]: 780 µM | IC50 [8]: 1000 µM

SMILES: CO[C@H]1O[C@H](CO)[C@@H](O)[C@H](O)[C@H]1N[C@H]1C=C(CO)[C@@H](O)[C@H](O)[C@H]1O
inhibition (Rattus norvegicus [1]): inactive | inhibition (Rattus norvegicus [2]): inactive

SMILES: CCCCN1C[C@H](O)[C@@H](O)[C@H](O)[C@H]1CO
IC50 [12]: 4.6 µM

Second part, led by results:

inhibition (Rattus norvegicus [3]): inactive | inhibition (Rattus norvegicus [5]): inactive
SMILES: CO[C@H]1O[C@H](CN[C@H]2C=C(CO)[C@@H](O)[C@H](O)[C@H]2O)[C@@H](O)[C@H](O)[C@H]1O
inhibition (HL-60 [4]): inactive

inhibition (Rattus norvegicus [3]): inactive | IC50 [10]: 236 µM
SMILES: CO[C@H]1O[C@H](CO)[C@@H](O)[C@H](N[C@H]2C=C(CO)[C@@H](O)[C@H](O)[C@H]2O)[C@@H]1O
inhibition (HL-60 [9]): Active

inhibition (Rattus norvegicus [3]): inactive | inhibition (Rattus norvegicus [5]): inactive
SMILES: CO[C@H]1O[C@H](CN[C@@H]2C=C(CO)[C@@H](O)[C@H](O)[C@H]2O)[C@@H](O)[C@H](O)[C@H]1O
inhibition (HL-60 [4]): inactive

IC50 [10]: 143 µM | IC50 [11]: 72 µM
SMILES: CO[C@H]1O[C@H](CO)[C@@H](O)[C@H](N[C@H]2C=C(CO)[C@@H](O)[C@H](O)[C@H]2O)[C@H]1O
inhibition (HL-60 [9]): Active
